According to patent US8741897B2, “Glucocorticoid mimetics, methods of making them, pharmaceutical compositions and uses thereof” (Boehringer Ingelheim Pharmaceuticals Inc., priority 2003, dated 2014):

Tested on: glucocorticoid receptor function
Experiment: one or more of the above assays (GR binding and glucocorticoid receptor cell assays: aromatase, IL-6, TAT, MMTV-Luc, IL-8, ICAM-Luc)
Assay type: cell-based
Conditions: assay not specified per compound

SMILES | activity as agonists of the glucocorticoid receptor function in one or more of the above assays
CC(C)(CC(O)(Cc1cc2nc(CN3CCOCC3)ccc2[nH]1)C(F)(F)F)c1cc(Cl)ccc1O (stereo not shown) [4-Chloro-2-[4,4,4-trifluoro-3-hydroxy-1,1-dimethyl-3-(5-morpholin-4-ylmethyl-1H-pyrrolo[3,2-b]pyridin-2-ylmethyl)butyl]phenol] | potent agonists
COc1ccc(-c2cncnc2)cc1C(C)(C)CC(O)(Cc1cc2cc(N(C)C)ncc2[nH]1)C(F)(F)F (stereo not shown) [2-(5-Dimethylamino-1H-pyrrolo[2,3-c]pyridin-2-ylmethyl)-1,1,1-trifluoro-4-(2-methoxy-5-pyrimidin-5-ylphenyl)-4-methylpentan-2-ol] | potent agonists
Cc1cc2[nH]c(CC(O)(CC(C)(C)c3cc(Cl)cc4c3OCC4)C(F)F)cc2cn1 (stereo not shown) [4-(5-Chloro-2,3-dihydrobenzofuran-7-yl)-1,1-difluoro-4-methyl-2-(6-methyl-1H-pyrrolo[3,2-c]pyridin-2-ylmethyl)pentan-2-ol] | agonists
COc1ccc(F)cc1C(C)(C)CC(O)(Cc1cc2c(C#N)cccc2[nH]1)C(F)(F)F (stereo not shown) [2-[4-(5-Fluoro-2-methoxyphenyl)-2-hydroxy-4-methyl-2-trifluoromethylpentyl]-1H-indole-4-carbonitrile] | potent agonists
COc1ccc(F)cc1C(C)(C)CC(O)(Cc1cc2nc(C(C)C)ncc2[nH]1)C(F)(F)F (stereo not shown) [1,1,1-Trifluoro-4-(5-fluoro-2-methoxyphenyl)-2-(2-isopropyl-5H-pyrrolo[3,2-d]pyrimidin-6-ylmethyl)-4-methylpentan-2-ol] | potent agonists
CC(C)(CC(O)(Cc1cc2cc(C#N)ncc2[nH]1)C(F)(F)F)c1cc(Cl)cc2c1OCC2 (stereo not shown) [2-[4-(5-Chloro-2,3-dihydrobenzofuran-7-yl)-2-hydroxy-4-methyl-2-trifluoromethylpentyl]-1H-pyrrolo[2,3-c]pyridine-5-carbonitrile] | potent agonists
CC(C)(CC(O)(Cc1cc2cnccc2[nH]1)C(F)F)c1cc(Cl)cc2c1OCC2 (stereo not shown) [4-(5-Chloro-2,3-dihydrobenzofuran-7-yl)-1,1-difluoro-4-methyl-2-(1H-pyrrolo[3,2-c]pyridin-2-ylmethyl)pentan-2-ol] | agonists
CC(C)(CC(O)(Cc1cc2cc(Cl)ncc2[nH]1)C(F)(F)F)c1cc(Cl)cc2c1OCC2 (stereo not shown) [4-(5-Chloro-2,3-dihydrobenzofuran-7-yl)-2-(5-chloro-1H-pyrrolo[2,3-c]pyridin-2-ylmethyl)-1,1,1-trifluoro-4-methylpentan-2-ol] | potent agonists
COc1ccc(F)cc1C(C)(C)CC(O)(Cc1cc2cnccc2[nH]1)C1CC1 (stereo not shown) [2-Cyclopropyl-4-(5-fluoro-2-methoxyphenyl)-4-methyl-1-(1H-pyrrolo[3,2-c]pyridin-2-yl)pentan-2-ol] | agonists
Cc1ccc(F)cc1C(C)(C)CC(O)(Cn1ccc2c1CCCC2=O)C(F)(F)F (stereo not shown) [1-[4-(5-Fluoro-2-methylphenyl)-2-hydroxy-4-methyl-2-trifluoromethylpentyl]-1,5,6,7-tetrahydroindol-4-one] | agonists
Cc1c(CC(O)(CC(C)(C)c2cccc(F)c2)C(F)(F)F)[nH]c2cnccc12 (stereo not shown) [1,1,1-Trifluoro-4-(3-fluorophenyl)-4-methyl-2-(3-methyl-1H-pyrrolo[2,3-c]pyridin-2-ylmethyl)pentan-2-ol] | potent agonists
Cc1ccc(F)cc1C(C)(C)CC(O)(Cc1cc2cc(N(C)C(C)C)ncc2[nH]1)C(F)(F)F (stereo not shown) [1,1,1-Trifluoro-4-(5-fluoro-2-methylphenyl)-2-[5-(isopropylmethylamino)-1H-pyrrolo[2,3-c]pyridin-2-ylmethyl]-4-methylpentan-2-ol] | potent agonists
COc1ccc(-c2cncnc2)cc1C(C)(C)CC(O)(Cc1cc2cc(OC(C)C)ncc2[nH]1)C(F)(F)F (stereo not shown) [1,1,1-Trifluoro-2-(5-isopropoxy-1H-pyrrolo[2,3-c]pyridin-2-ylmethyl)-4-(2-methoxy-5-pyrimidin-5-ylphenyl)-4-methylpentan-2-ol] | potent agonists
Cc1nccc2[nH]c(CC(O)(CC(C)(C)c3ccc(F)cc3O)C(F)(F)F)cc12 (stereo not shown) [5-Fluoro-2-[4,4,4-trifluoro-3-hydroxy-1,1-dimethyl-3-(4-methyl-1H-pyrrolo[3,2-c]pyridin-2-ylmethyl)butyl]phenol] | potent agonists
COc1ccc(-c2ccccc2)cc1C(C)(C)CC(O)(Cc1cc2ccncc2[nH]1)C(F)(F)F (stereo not shown) [1,1,1-Trifluoro-4-(4-methoxybiphenyl-3-yl)-4-methyl-2-(1H-pyrrolo[2,3-c]pyridin-2-ylmethyl)pentan-2-ol] | potent agonists
CC(C)(CC(O)(Cc1cc2nc(N3CCCC3)ncc2[nH]1)C(F)(F)F)c1cc(Cl)cc2c1OCC2 (stereo not shown) [4-(5-Chloro-2,3-dihydrobenzofuran-7-yl)-1,1,1-trifluoro-4-methyl-2-(2-pyrrolidin-1-yl-5H-pyrrolo[3,2-d]pyrimidin-6-ylmethyl)pentan-2-ol] | potent agonists

SMILES | activity as agonists of the glucocorticoid receptor function in one or more of the above assays
Cc1nc(C#N)cc2[nH]c(CC(O)(CC(C)(C)c3cc(S(C)(=O)=O)cc4c3OCC4)C(F)(F)F)cc12 (stereo not shown) [2-[2-Hydroxy-4-(5-methanesulfonyl-2,3-dihydrobenzofuran-7-yl)-4-methyl-2-trifluoromethylpentyl]-4-methyl-1H-pyrrolo[3,2-c]pyridine-6-carbonitrile] | potent agonists
CC(C)(CC(O)(Cn1ccc2ncccc21)C(F)(F)F)c1cc(S(C)(=O)=O)cc2c1OCC2 (stereo not shown) [1,1,1-Trifluoro-4-(5-methanesulfonyl-2,3-dihydrobenzofuran-7-yl)-4-methyl-2-pyrrolo[3,2-b]pyridin-1-ylmethylpentan-2-ol] | potent agonists
Cc1ccc(F)cc1C(C)(C)CC(O)(Cc1cc2ccncc2[nH]1)C(C)C (stereo not shown) [5-(5-Fluoro-2-methylphenyl)-2,5-dimethyl-3-(1H-pyrrolo[2,3-c]pyridin-2-ylmethyl)hexan-3-ol] | agonists
CC(C)Oc1cc2cc(CC(O)(CC(C)(C)c3cc(-c4ccccc4)cc4c3OCC4)C(F)(F)F)[nH]c2cn1 (stereo not shown) [1,1,1-Trifluoro-2-(5-isopropoxy-1H-pyrrolo[2,3-c]pyridin-2-ylmethyl)-4-methyl-4-(5-phenyl-2,3-dihydrobenzofuran-7-yl)pentan-2-ol] | potent agonists
CC(C)(CC(O)(Cn1ccc2c1CCCC2=O)C(F)(F)F)c1cc(F)ccc1O (stereo not shown) | agonists
CCN(C)c1cc2cc(CC(O)(CC(C)(C)c3cc(F)ccc3OC)C(F)(F)F)[nH]c2cn1 (stereo not shown) [2-[5-(Ethylmethylamino)-1H-pyrrolo[2,3-c]pyridin-2-ylmethyl]-1,1,1-trifluoro-4-(5-fluoro-2-methoxyphenyl)-4-methylpentan-2-ol] | potent agonists
CC(C)(CC(O)(Cc1cc2cc(N3CCOCC3)ncc2[nH]1)C(F)(F)F)c1cccc(-c2cncnc2)c1 (stereo not shown) [1,1,1-Trifluoro-4-methyl-2-(5-morpholin-4-yl-1H-pyrrolo[2,3-c]pyridin-2-ylmethyl)-4-(3-pyrimidin-5-ylphenyl)pentan-2-ol] | potent agonists
COc1ccc(F)cc1C(C)(C)CC(O)(Cc1[nH]c2ccncc2c1Cl)C(F)(F)F (stereo not shown) [2-(3-Chloro-1H-pyrrolo[3,2-c]pyridin-2-ylmethyl)-1,1,1-trifluoro-4-(5-fluoro-2-methoxyphenyl)-4-methylpentan-2-ol] | potent agonists
CC(C)Oc1cc2cc(CC(O)(CC(C)(C)c3cccc(F)c3)C(F)(F)F)[nH]c2cn1 (stereo not shown) [1,1,1-Trifluoro-4-(3-fluorophenyl)-2-(5-isopropoxy-1H-pyrrolo[2,3-c]pyridin-2-ylmethyl)-4-methylpentan-2-ol] | potent agonists
Cc1ccc(F)cc1C(C)(C)CC(O)(Cc1cc2cc(N3CCCC3)ncc2[nH]1)C(F)(F)F (stereo not shown) [1,1,1-Trifluoro-4-(5-fluoro-2-methylphenyl)-4-methyl-2-(5-pyrrolidin-1-yl-1H-pyrrolo[2,3-c]pyridin-2-ylmethyl)pentan-2-ol] | potent agonists
CC(C)(CC(O)(Cc1cc2nc(C(N)=O)ccc2[nH]1)C(F)(F)F)c1cc(Cl)cc2c1OCC2 (stereo not shown) [2-[4-(5-Chloro-2,3-dihydrobenzofuran-7-yl)-2-hydroxy-4-methyl-2-trifluoromethylpentyl]-1H-pyrrolo[3,2-b]pyridine-5-carboxylic acid amide] | potent agonists
COc1ccc(F)cc1C(C)(C)CC(O)(Cc1cc2cc(N3CCOCC3)ncc2[nH]1)C(F)(F)F (stereo not shown) [1,1,1-Trifluoro-4-(5-fluoro-2-methoxyphenyl)-4-methyl-2-(5-morpholin-4-yl-1H-pyrrolo[2,3-c]pyridin-2-ylmethyl)pentan-2-ol] | potent agonists
Cc1c(CC(O)(CC(C)(C)c2cc(Cl)cc3c2OCC3)C(C)C)[nH]c2cnccc12 (stereo not shown) [5-(5-Chloro-2,3-dihydrobenzofuran-7-yl)-2,5-dimethyl-3-(3-methyl-1H-pyrrolo[2,3-c]pyridin-2-ylmethyl)hexan-3-ol] | agonists
COc1ccc(C)cc1C(C)(C)CC(O)(Cc1cc2nc(N3CCCC3)ncc2[nH]1)C(F)(F)F (stereo not shown) | potent agonists
CC(C)(CC(O)(Cc1cc2cnccc2[nH]1)C1CC1)c1cc(Cl)cc2c1OCC2 (stereo not shown) [4-(5-Chloro-2,3-dihydrobenzofuran-7-yl)-2-cyclopropyl-4-methyl-1-(1H-pyrrolo[3,2-c]pyridin-2-yl)pentan-2-ol] | agonists
